Test [1] has as its target T1, MAGL (Mus musculus (Mouse), UniProt O35678). Briefly: In vitro competitive activity-based protein profiling, mouse brain proteome. Format: biochemical. The settings on record: 1 uM; mouse.
Test [2] concerns the target T1, MAGL. Briefly: Mouse brain proteomes from inhibitor treated mice (oral gavage, brain MAGL activity 4 h after administration). The test is classed as in vivo. The settings on record: 5 mg/kg oral gavage. How it is done: Preparation of Mouse Brain Proteomes from Inhibitor Treated Mice.
Inhibitors were administered to wild-type C57B1/6J by oral gavage in a vehicle of polyethylene glycol.

Test [3] addresses MAGL (Homo sapiens (Human), UniProt Q99685). Briefly: In vitro competitive activity-based protein profiling (gel-based, FP-Rh or HT-01 probe). The test is classed as biochemical. Particulars: for IC50: read-out: MAGL Human PC3 (IC50). How it is done: In Vitro Competitive Activity-Based Protein Profiling.
Proteomes (human prefrontal cortex or cell membrane fractions) (50 μL, 1.0 mg/mL total protein concentration) were preincubated with varying concentrations of inhibitors at 37° C. After 30 min, FP-Rh or HT-01 (1.0 μL, 50 μM in DMSO) was added and the mixture was incubated for another 30 min at room temperature. Reactions were quenched with SDS loading buffer (15 μL—4×) and run on SDS-PAGE.

Setting [4] is: human PC3, read-out: MAGL % Inhibition at 1 μM (human PC3).
[5] abbreviates: human PFC (prefrontal cortex), read-out: MAGL % Inhibition at 1 μM (human PFC).

Structures are written as SMILES. Where two headings read alike, the source gives them in different places.

In general, inhibition refers to how much of the control response was suppressed. As a reminder, the IC50 is the concentration needed to halve the response being measured.

T1 sequence (O35678 whole entry): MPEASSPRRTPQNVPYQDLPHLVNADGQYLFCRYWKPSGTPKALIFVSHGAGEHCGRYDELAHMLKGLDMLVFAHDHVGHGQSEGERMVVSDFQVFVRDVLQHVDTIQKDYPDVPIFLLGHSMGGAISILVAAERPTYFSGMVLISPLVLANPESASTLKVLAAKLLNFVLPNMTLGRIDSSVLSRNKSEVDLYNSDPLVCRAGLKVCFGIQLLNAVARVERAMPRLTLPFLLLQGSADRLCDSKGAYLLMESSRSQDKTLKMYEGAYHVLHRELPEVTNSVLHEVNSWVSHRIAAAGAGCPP
Sequence of MAGL (Homo sapiens (Human), UniProt Q99685) (Q99685 whole entry): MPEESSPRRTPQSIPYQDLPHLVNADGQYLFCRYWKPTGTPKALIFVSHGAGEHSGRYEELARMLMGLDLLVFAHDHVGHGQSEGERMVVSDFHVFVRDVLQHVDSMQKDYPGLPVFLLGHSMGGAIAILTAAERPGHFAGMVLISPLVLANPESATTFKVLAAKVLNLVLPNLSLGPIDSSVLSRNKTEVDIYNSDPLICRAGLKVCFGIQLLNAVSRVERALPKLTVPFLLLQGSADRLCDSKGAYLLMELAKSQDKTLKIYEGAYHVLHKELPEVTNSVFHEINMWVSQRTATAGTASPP

As to `O=C(OC(C(F)(F)F)C(F)(F)F)N1CCC2(CCCN2C(=O)c2cn3c(n2)CN(CC2CC2)CC3)CC1` [Example 154, 1,1,1,3,3,3-Hexafluoropropan-2-yl 1-(7-(cyclopropylmethyl)-5,6,7,8-tetrahydroimidazo[1,2-a]pyrazine-2-carbonyl)-1,8-diazaspiro[4.5] decane-8-carboxylate], the inhibition at 1 µM on MAGL [1], at MAGL [3] (setting [4]) and on MAGL [3] (setting [5]) was greater than 75% in each case. Moreover, the “MAGL % Inhibition at 5 mg/kg (Mouse)” value at MAGL [2] is recorded as “### (% inhibition is greater than or equal to 75%)”. On MAGL [3] (human PC3), the IC50 is less than 100 nM.

As to `O=C(OC(C(F)(F)F)C(F)(F)F)N1CCC2(CCCN2C(=O)c2cc3n(n2)CCN(C2CC2)C3)CC1` [Example 155, 1,1,1,3,3,3-Hexafluoropropan-2-yl 1-(5-cyclopropyl-4,5,6,7-tetrahydropyrazolo [1,5-a]pyrazine-2-carbonyl)-1,8-diazaspiro[4.5] decane-8-carboxylate], the inhibition at 1 µM on MAGL [1], on MAGL [3] (setting [4]) and at MAGL [3] (setting [5]) was greater than 75% in each case. Further, the “MAGL % Inhibition at 5 mg/kg (Mouse)” value at MAGL [2] is reported as “### (% inhibition is greater than or equal to 75%)”. At MAGL [3] (human PC3), the IC50 was less than 100 nM.

Turning to `O=C(OC(C(F)(F)F)C(F)(F)F)N1CCC2(CCCN2C(=O)c2cn3c(n2)CN(C2COC2)CC3)CC1` [Example 161, 1.1,1,3,3,3-Hexafluoropropan-2-yl 1-(7-(oxetan-3-yl)-5,6,7,8-tetrahydroimidazo [1,2-a]pyrazine-2-carbonyl)-1,8-diazaspiro[4.5] decane-8-carboxylate], the inhibition at 1 µM at MAGL [1] and at MAGL [3] (setting [4]) was greater than 75% each time. In addition, the “MAGL % Inhibition at 5 mg/kg (Mouse)” value at MAGL [2] was “## (% inhibition is less than 75% and greater than 25%)”. At MAGL [3] (human PC3), the IC50 was less than 100 nM.

Take `COCC(C)N1CCn2cc(C(=O)N3CCCC34CCN(C(=O)OC(C(F)(F)F)C(F)(F)F)CC4)nc2C1` (centres unmarked) [Example 169, 1.1,1,3,3,3-Hexafluoropropan-2-yl 1-(7-(1-methoxypropan-2-yl)-5,6,7,8-tetrahydroimidazo [1,2-a]pyrazine-2-carbonyl)-1,8-diazaspiro[4.5] decane-8-carboxylate]: the inhibition at 1 µM at MAGL [1], on MAGL [3] (setting [4]) and on MAGL [3] (setting [5]) was greater than 75% in each case. The “MAGL % Inhibition at 5 mg/kg (Mouse)” value on MAGL [2] is “# (% inhibition less or equal to 25%)”. The IC50 on MAGL [3] (human PC3) was less than 100 nM.

With `CC1(CN2CCn3cc(C(=O)N4CCCC45CCN(C(=O)OC(C(F)(F)F)C(F)(F)F)CC5)nc3C2)COC1` [Example 170, 1,1,1,3,3,3-Hexafluoropropan-2-yl 1-(7-((3-methyloxetan-3-yl)methyl)-5,6,7,8-tetrahydroimidazo [1,2-a]pyrazine-2-carbonyl)-1,8-diazaspiro[4.5] decane-8-carboxylate], the inhibition at 1 µM at MAGL [1], on MAGL [3] (setting [4]) and at MAGL [3] (setting [5]) was greater than 75% each time. Also, the “MAGL % Inhibition at 5 mg/kg (Mouse)” value at MAGL [2] was “# (% inhibition less or equal to 25%)”. Further, the IC50 on MAGL [3] (human PC3) is less than 100 nM.

For the compound `CC1(NC(=O)c2cn3c(n2)CN(C2CC2)CC3)CCN(C(=O)OC(C(F)(F)F)C(F)(F)F)CC1` [Example 174, 1,1,1,3,3,3-Hexafluoropropan-2-yl 4-(7-cyclopropyl-5,6,7,8-tetrahydroimidazo[1,2-a]pyrazine-2-carboxamido)-4-methylpiperidine-1-carboxylate], the inhibition at 1 µM at MAGL [1], at MAGL [3] (setting [4]) and at MAGL [3] (setting [5]) was greater than 75% throughout. At MAGL [2], the “MAGL % Inhibition at 5 mg/kg (Mouse)” value is given as “### (% inhibition is greater than or equal to 75%)”. In addition, the IC50 at MAGL [3] (human PC3) is less than 100 nM.

With `CN(C(=O)C1(c2cnccn2)CC1)C1(C)CCN(C(=O)OC(C(F)(F)F)C(F)(F)F)CC1` [Example 176, 1,1,1,3,3,3-Hexafluoropropan-2-yl 4-methyl-4-(N-methyl-1-(pyrazin-2-yl)cyclopropane-1-carboxamido) piperidine-1-carboxylate], the inhibition at 1 µM at MAGL [1], on MAGL [3] (setting [4]) and on MAGL [3] (setting [5]) was greater than 75% in each case. Further, the “MAGL % Inhibition at 5 mg/kg (Mouse)” value at MAGL [2] was “# (% inhibition less or equal to 25%)”. The IC50 at MAGL [3] (human PC3) was less than 100 nM.

For the compound `O=C(OC(C(F)(F)F)C(F)(F)F)N1CCC2(CCCN2C(=O)C2(c3cccnn3)CC2)CC1` [Example 179, 1,1,1,3,3,3-Hexafluoropropan-2-yl 1-(1-(pyridazin-3-yl)cyclopropane-1-carbonyl)-1,8-diazaspiro [4.5]decane-8-carboxylate], the inhibition at 1 µM on MAGL [1], on MAGL [3] (setting [4]) and on MAGL [3] (setting [5]) was greater than 75% throughout. Further, the “MAGL % Inhibition at 5 mg/kg (Mouse)” value on MAGL [2] is “## (% inhibition is less than 75% and greater than 25%)”. Further, on MAGL [3] (human PC3), the IC50 was less than 100 nM.

As to `O=C(OC(C(F)(F)F)C(F)(F)F)N1CCC2(CCCN2C(=O)C2(c3ncc(F)cn3)CC2)CC1` [Example 180, 1,1,1,3,3,3-Hexafluoropropan-2-yl 1-(1-(5-fluoropyrimidin-2-yl)cyclopropane-1-carbonyl)-1,8-diazaspiro[4.5] decane-8-carboxylate], the inhibition at 1 µM on MAGL [1], on MAGL [3] (setting [4]) and on MAGL [3] (setting [5]) was greater than 75% throughout. Besides, at MAGL [2], the “MAGL % Inhibition at 5 mg/kg (Mouse)” value is given as “### (% inhibition is greater than or equal to 75%)”. For the same compound, the IC50 at MAGL [3] (human PC3) is less than 100 nM.

As to `CC1(NC(=O)c2cn3c(n2)CN(C(=O)C2(C)CC2)CC3)CCN(C(=O)OC(C(F)(F)F)C(F)(F)F)CC1` [Example 190, 1,1,1,3,3,3-Hexafluoropropan-2-yl 4-methyl-4-(7-(1-methylcyclopropane-1-carbonyl)-5,6,7,8-tetrahydroimidazo[1,2-a]pyrazine-2-carboxamido) piperidine-1-carboxylate], the inhibition at 1 µM at MAGL [1] and at MAGL [3] (setting [4]) was greater than 75% throughout. For the same compound, the “MAGL % Inhibition at 5 mg/kg (Mouse)” value on MAGL [2] is recorded as “# (% inhibition less or equal to 25%)”. In addition, the IC50 on MAGL [3] (human PC3) is less than 100 nM.

On to `CC1(NC(=O)c2cn3c(n2)CN(C(=O)C(C)(C)C)CC3)CCN(C(=O)OC(C(F)(F)F)C(F)(F)F)CC1` [Example 191, 1,1,1,3,3,3-Hexafluoropropan-2-yl 4-methyl-4-(7-pivaloyl-5,6,7,8-tetrahydroimidazo[1,2-a]pyrazine-2-carboxamido) piperidine-1-carboxylate], for which the inhibition at 1 µM at MAGL [1] and on MAGL [3] (setting [4]) was greater than 75% throughout. Also, the “MAGL % Inhibition at 5 mg/kg (Mouse)” value on MAGL [2] is “# (% inhibition less or equal to 25%)”. The IC50 on MAGL [3] (human PC3) is less than 100 nM.

With `CC(C)Oc1cnc(C2(C(=O)N3CCCC34CCN(C(=O)OC(C(F)(F)F)C(F)(F)F)CC4)CC2)nc1` [Example 194, 1,1,1,3,3,3-Hexafluoropropan-2-yl 1-(1-(5-isopropoxypyrimidin-2-yl)cyclopropane-1-carbonyl)-1,8-diazaspiro [4.5]decane-8-carboxylate], the inhibition at 1 µM at MAGL [1], at MAGL [3] (setting [4]) and at MAGL [3] (setting [5]) was greater than 75% each time. The “MAGL % Inhibition at 5 mg/kg (Mouse)” value at MAGL [2] was “### (% inhibition is greater than or equal to 75%)”. Moreover, the IC50 on MAGL [3] (human PC3) is less than 100 nM.

As for `COc1nccc(C2(C(=O)N3CCCC34CCN(C(=O)OC(C(F)(F)F)C(F)(F)F)CC4)CC2)n1` [Example 200, 1,1,1,3,3,3-Hexafluoropropan-2-yl 1-(1-(2-methoxypyrimidin-4-yl)cyclopropane-1-carbonyl)-1,8-diazaspiro [4.5]decane-8-carboxylate], the inhibition at 1 µM on MAGL [1], at MAGL [3] (setting [4]) and on MAGL [3] (setting [5]) was greater than 75% each time. Moreover, on MAGL [2], the “MAGL % Inhibition at 5 mg/kg (Mouse)” value is given as “### (% inhibition is greater than or equal to 75%)”. In addition, at MAGL [3] (human PC3), the IC50 was less than 100 nM.

For `CC1(NC(=O)c2nnc3n2CCN(C2CC2)C3)CCN(C(=O)OC(C(F)(F)F)C(F)(F)F)CC1` [Example 204, 1,1,1,3,3,3-Hexafluoropropan-2-yl 4-(7-cyclopropyl-5,6,7,8-tetrahydro-[1,2,4]triazolo[4,3-a]pyrazine-3-carboxamido)-4-methylpiperidine-1-carboxylate], the inhibition at 1 µM on MAGL [1], at MAGL [3] (setting [4]) and at MAGL [3] (setting [5]) was greater than 75% throughout. On MAGL [2], the “MAGL % Inhibition at 5 mg/kg (Mouse)” value is on record as “### (% inhibition is greater than or equal to 75%)”. For the same compound, the IC50 at MAGL [3] (human PC3) was less than 100 nM.

As for `CC(C)(O)CN1CCn2c(nnc2C(=O)NC2(C)CCN(C(=O)OC(C(F)(F)F)C(F)(F)F)CC2)C1` [Example 206, 1,1,1,3,3,3-Hexafluoropropan-2-yl 4-(7-(2-hydroxy-2-methylpropyl)-5,6,7,8-tetrahydro-[1,2,4]triazolo[4,3-a]pyrazine-3-carboxamido)-4-methylpiperidine-1-carboxylate], the inhibition at 1 µM on MAGL [1], on MAGL [3] (setting [4]) and at MAGL [3] (setting [5]) was greater than 75% in each case. Also, at MAGL [2], the “MAGL % Inhibition at 5 mg/kg (Mouse)” value is on record as “### (% inhibition is greater than or equal to 75%)”. The IC50 on MAGL [3] (human PC3) is less than 100 nM.

For `CC1(NC(=O)c2nnc3n2CCN(C2COC2)C3)CCN(C(=O)OC(C(F)(F)F)C(F)(F)F)CC1` [Example 207, 1,1,1,3,3,3-Hexafluoropropan-2-yl 4-methyl-4-(7-(oxetan-3-yl)-5,6,7,8-tetrahydro-[1,2,4]triazolo [4,3-a]pyrazine-3-carboxamido) piperidine-1-carboxylate], the inhibition at 1 µM at MAGL [1], at MAGL [3] (setting [4]) and on MAGL [3] (setting [5]) was greater than 75% throughout. The “MAGL % Inhibition at 5 mg/kg (Mouse)” value on MAGL [2] is listed as “### (% inhibition is greater than or equal to 75%)”. The IC50 at MAGL [3] (human PC3) was less than 100 nM.
